Source: patent US20220202801A1, “USE OF COMPOUND IN PREPARATION OF DRUG FOR TREATING ATHEROSCLEROSIS” (GenEros Biopharma Ltd., priority 2019, published 2022)

How the values were obtained:
[1] = tested on: CD68; experiment: Immunohistochemistry of aortic wall, CD68; assay type: in vivo, mice; conditions: IHC-P×400, single animal micrograph, 20 mg/kg
From the text: (§1) Methods: SPF grade C57BL/6 ApoE −/−model mice were provided by Guangdong Medical Experimental Animal Center, laboratory animal production license No. SOCK (Guangdong) 2013-0002. Laboratory animal quality certificate number: 44007200048196). Mice were half male and half female, aged 8 to 12 weeks, and 72 animals in total. After four weeks of housing in a SPF-level animal facility, animals with less body weights were disposed. A total of 64 animals were randomly divided into 8 groups, 8 in each group, fed with 10% high-fat food, and received with different treatments. Animals were observed and administered with the medicines by gavage once daily. The body weights were measured once a week and continued for 58 days. […] The test sample was dissolved in dimethyl sulfoxide solution and prepared with 30% PEG300.
(§2) After blood collection, the animals were sacrificed, and the aortic arch together with the heart and thoracic aorta were fixed with neutral formaldehyde and subject to pathological examination. The abdominal aorta was collected and quick-frozen in liquid nitrogen, and stored at −80° C.
(§3) c) Immunohistochemistry: The thoracic aorta was sliced and detected by immunohistochemistry for the expression of CD68, intercellular adhesion molecule-1 (ICAM-1), and vascular cell adhesion Molecule-1 (VCAM-1).

[2] = tested on: ApoE knockout mice; experiment: Four blood lipids in serum of ApoE knockout mice (Example 1); assay type: in vivo; conditions: serum
From the text: as §1
At the end of the experiment, animals were anesthetized with pentobarbital sodium. Blood was collected from the orbital venous plexus, and centrifuged at 3000 r/min at a low temperature for 10 min to separate the serum. The levels of total cholesterol TC, triglyceride TG, high-density lipoprotein HDL-C, and low-density lipoprotein LDL-C were measured, and the remaining serum was stored in a refrigerator at −80° C.
Statistical analysis: Data were expressed as the mean plus or minus the standard deviation (x± s), and analyzed by SPSS21.0 statistical software. […] The level of test is α=0.05.

[3] = Body weight of ApoE knockout mice on high-fat food (Example 1); assay type: in vivo; conditions: 20 mg/kg gavage QD
From the text: as §1
Statistical analysis: Data were expressed as the mean plus or minus the standard deviation (x± s), and analyzed by SPSS21.0 statistical software. The weight data of each group were compared by repeated measures analysis of variance; the blood lipid levels of the statin treatment group were compared with the model control group by independent sample T test; the blood lipid levels of the test samples A and B were compared with the model control group by one-way analysis of variance, and LSD method was used for the comparison among groups. The level of test is α=0.05.

[4] = tested on: ApoE knockout mice; experiment: Blood lipid metabolism TG, TCHO, HDL-c, LDL-c (Example 2); assay type: in vivo
From the text: (§4) Methods: A total of 130 SPF grade C57BL/6 ApoE −/− model male mice aged 8 weeks were purchased from Charles River Laboratories (Beijing, China) (animal license number: SCXK (Beijing) 2016-0001, animal qualification certificate No.: 11400700331337). After one week of acclimatization in a SPF-grade animal facility, the animals with less weights were discarded and the rest was randomly divided into 11 groups, with 8 animals in each group. Except for the healthy control group, the rest were fed with 10% high-fat food (the first day of the high-fat diet was recorded as D1). Starting from the 8th week of the high-fat diet, each group of animals was orally given solvents or corresponding drugs, and the volume of administration was 10 ml/kg, once a day for 8 weeks. Animals were observed and administered by gavage once a day and the body weight were measured once a week for 56 days. […] The store solution of the test samples was dissolved in dimethyl sulfoxide solution and prepared with 30% PEG300.
At the end of the experiment, the animals were euthanized by inhalation of carbon dioxide. Blood was taken from the heart, and centrifuged at 3000 r/min at a low temperature centrifuge for 10 min to separate the serum. The levels of total cholesterol TC, triglyceride TG, high-density lipoprotein HDL-C, and low-density lipoprotein LDL-C were measured, and the remaining serum was stored in a refrigerator at −80° C.
Before the start of the experiment, animal blood samples were analyzed for blood lipid metabolism, including conventional triglyceride (TG), total cholesterol (TCHO), high-density lipoprotein (HDL-c) and low-density lipoprotein (LDL-c). After high-fat or ordinary food feeding for 8 weeks, the blood lipid levels were measured again. After the drug treatment was started, blood lipid measurements were performed every four weeks until the end of the experiment.

[5] = tested on: atherosclerotic lesions in ApoE knockout mice; experiment: Aortic HE and oil red O staining, atherosclerotic lesion scores (Example 1); assay type: in vivo
From the text: as §1, §2
a) HE staining: aortic arch was sliced and HE stained. The plaques were observed under optical microscope.
b) Oil red O staining: aortic arch was sliced and oil red O stained. The plaques were observed under optical microscope.

[6] = tested on: VCAM-1; experiment: Immunohistochemistry of aortic wall, VCAM-1; assay type: in vivo, mice; conditions: IHC-P×400, single animal micrograph, 20 mg/kg
From the text: as §1, §2, §3

[7] = tested on: ICAM-1; experiment: Immunohistochemistry of aortic wall, ICAM-1; assay type: in vivo, mice; conditions: IHC-P×400, single animal micrograph, 20 mg/kg
From the text: as §1, §2, §3

[8] = tested on: atherosclerosis model induced by high-fat diet in ApoE knockout mice; experiment: Ratio of atherosclerotic plaque area to total inner wall area of the aorta (En-Face, oil red; Example 2); assay type: in vivo; conditions: for Mean of Plaque Ratio (plaque area to total inner wall area of aorta): high-fat diet; for symptoms of atherosclerosis under therapeutic intervention (mainly plaque area ratio): different doses, Example 2
From the text: as §4
Immediately after blood was taken from the heart, it was perfused through the left ventricle with 20 ml of normal saline. After bloodletting, the heart and aorta (from the aortic arch to the iliac artery) were isolated. The isolated artery was cut longitudinally from the aortic arch to the iliac artery, fixed in 4% paraformaldehyde for 30 minutes, synchronized with 60% isopropanol for 10 minutes, stained in 60% oil red for 30 minutes, and washed by 60% isopropanol 3 times, 5 minutes each time. Finally, the colored aorta was washed with deionized water and photographed. The proportion of the red plaque area was measured by Image Pro Plus 6.0 (Media Cybernetics, MD, US). The heart samples were fixed in 4% paraformaldehyde solution overnight and then placed in sucrose solution for dehydration. Then, it was embedded with OCT (Sakura, Japan) under a stereo microscope and made into 7 μm frozen sections. After HE staining, the slices were used for routine pathological examination. The outflow tract images were collected under an optical microscope at 4* magnification, and 4*, 10*, 20* and 40* magnification eyepieces were used for high-quality morphological observation. The detection standard referred to the histological classification standard of human atherosclerosis disease.
Evaluate the effect of different therapeutic drugs by the ratio of the area of atherosclerotic plaque to the total area of the inner wall of the aortic vessel (En-Face)
We adopted the widely accepted standard for the severity of arteriosclerosis in animal models, and analyzed the area of all plaques on the inner wall of the aorta. […] FIGS. 46A and 46B are histograms of the ratios of plaque area on the inner wall of the aorta in each treatment group. The values in FIGS. 46A and 46B are the ratios of plaques to the total area of the inner wall in each group, and the error is standard error±SEM. The statistical significance analysis is as follows: ***P<0.001 compared with the normal control group; #P<0.05 compared with the vehicle group; ##P<0.01, ###P<0.001, compared with the vehicle group through one-way ANOVA Dunnett's test; & represents P<0.05, compared with the vehicle group by t test.

[9] = half male and female, 20 mg/kg body weight
[10] = ♀, 20 mg/kg gavage QD, 58 days, 20 mg/kg
[11] = ♀, 20 mg/kg gavage QD, 58 days, listed as statin, 20 mg/kg
[12] = ♂, 20 mg/kg gavage QD, 58 days, 20 mg/kg
[13] = ♂, 20 mg/kg gavage QD, 58 days, listed as statin, 20 mg/kg
[14] = of 8 animals, 20 mg/kg body weight

## CC(C)c1c(C(=O)Nc2ccccc2)c(-c2ccccc2)c(-c2ccc(F)cc2)n1CC[C@@H](O)C[C@@H](O)CC(=O)[O-].CC(C)c1c(C(=O)Nc2ccccc2)c(-c2ccccc2)c(-c2ccc(F)cc2)n1CC[C@@H](O)C[C@@H](O)CC(=O)[O-].[Ca+2] [Statin, Atorvastatin calcium, reference compound]
[1]
  aorta (CD68) signal expression in blood vessels: low to medium
[2]; [9]
  LDL-C: 5.60 ± 1.19 mmol/L
  TC: 18.15 ± 2.38 mmol/L
[2]; half male and female, 20 mg/kg body weight, 20 mg/kg
  TG: 0.71 ± 0.19 mmol/L
[2]; half male and female, 20 mg/kg body weight, listed as statin, 20 mg/kg
  TG: lower
[2]; ♀, 20 mg/kg gavage QD, 58 days
  LDL-C: 5.03 ± 0.57 mmol/L
[2]; [10]
  HDL-C: 1.44 ± 0.09 mmol/L
  TC: 16.85 ± 1.76 mmol/L
  TG: 0.65 ± 0.06 mmol/L
[2]; [11]
  HDL-C: reduced to varying degrees, but there was no statistical difference
  TC: reduced to varying degrees, but there was no statistical difference
  TG: reduced to varying degrees, but there was no statistical difference
[2]; ♂, 20 mg/kg gavage QD, 58 days
  LDL-C: 6.17 ± 1.46 mmol/L
[2]; [12]
  HDL-C: 1.92 ± 0.62 mmol/L
  TC: 19.45 ± 2.37 mmol/L
  TG: 0.78 ± 0.27 mmol/L
[2]; [13]
  HDL-C: lower
  TC: lower
  TG: lower
[3]; d1, half male and female
  body weight: 25.1 ± 4.2 g
[3]; d1, ♀
  body weight: 21.2 ± 0.9 g
[3]; d1, ♂
  body weight: 28.9 ± 1.2 g
[3]; d8, half male and female
  body weight: 25.4 ± 3.8 g
[3]; d8, ♀
  body weight: 22.0 ± 0.6 g
[3]; d8, ♂
  body weight: 28.9 ± 0.9 g
[3]; d15, half male and female
  body weight: 25.3 ± 4.1 g
[3]; d15, ♀
  body weight: 21.5 ± 0.7 g
[3]; d15, ♂
  body weight: 29.0 ± 1.1 g
[3]; d22, half male and female
  body weight: 25.2 ± 4.2 g
[3]; d22, ♀
  body weight: 21.4 ± 0.6 g
[3]; d22, ♂
  body weight: 29.0 ± 1.4 g
[3]; d29, half male and female
  body weight: 25.2 ± 4.2 g
[3]; d29, ♀
  body weight: 21.4 ± 0.6 g
[3]; d29, ♂
  body weight: 29.1 ± 1.2 g
[3]; d36, half male and female
  body weight: 25.7 ± 3.8 g
[3]; d36, ♀
  body weight: 22.2 ± 0.9 g
[3]; d36, ♂
  body weight: 29.2 ± 1.0 g
[3]; d43, half male and female
  body weight: 26.0 ± 3.9 g
[3]; d43, ♀
  body weight: 22.4 ± 0.5 g
[3]; d43, ♂
  body weight: 29.6 ± 0.8 g
[3]; d50, half male and female
  body weight: 26.5 ± 3.7 g
[3]; d50, ♀
  body weight: 23.1 ± 0.9 g
[3]; d50, ♂
  body weight: 29.8 ± 0.6 g
[3]; d57, half male and female
  body weight: 26.4 ± 4.1 g
[3]; d57, ♀
  body weight: 22.7 ± 0.8 g
[3]; d57, ♂
  body weight: 30.0 ± 1.6 g
[3]; d58, half male and female
  body weight: 26.2 ± 3.8 g
[3]; d58, ♀
  body weight: 22.8 ± 0.5 g
[3]; d58, ♂
  body weight: 29.7 ± 1.4 g
[4]
  effect on total cholesterol (TCHO) level compared with the vehicle group: reduce
  effect on triglyceride (TG) level compared with the vehicle group: increase
[5]; [14]
  Mild n (number of animal cases with mild lesions): 0
  Moderate n (number of animal cases with moderate lesions): 3
  No lesion n (number of animal cases): 3
  Severe n (number of animal cases with severe lesions): 2
[5]; of 8 aortas examined, 20 mg/kg
  animals that had atherosclerosis (histological observation): 5 cases
[5]; score 0-3 per Table 8, 20 mg/kg body weight
  Scores (atherosclerotic lesion score, average of the group): 1.50 ± 1.31
[6]
  aorta (VCAM-1) signal expression in blood vessels: low to medium
[7]
  aorta (ICAM-1) signal expression in blood vessels: low to medium

## Cc1ccc(CC(=O)N2CCC(n3c(=O)[nH]c4ccccc43)CC2)cc1 [Sample X7, 1-(1-(2-(p-tolyl)acetyl)piperidin-4-yl)-1H-benzo[d]imidazole-2(3H)-one]
[8]; 5 mpk PO QD 8 weeks
  Mean of Plaque Ratio (plaque area to total inner wall area of aorta): 9.00%
[8]
  symptoms of atherosclerosis under therapeutic intervention (mainly plaque area ratio): significantly alleviate the symptoms of atherosclerosis
[4]
  effect on high-density lipoprotein (HDL-c) level compared with the vehicle group: no obvious effect
  effect on low-density lipoprotein (LDL-c) level compared with the vehicle group: significantly reduce
  effect on total cholesterol (TCHO) level compared with the vehicle group: significantly reduce
  effect on triglyceride (TG) level compared with the vehicle group: significantly reduce

## O=C(Cc1ccc(C(F)(F)F)cc1)N1CCC(n2c(=O)[nH]c3ccccc32)CC1 [Sample X8, 1-(1-(2-(4-(trifluoromethyl)phenyl)acetyl)piperidin-4-yl)-1H-benzo[d]imidazole-2(3H)-one]
[8]; 5 mpk PO QD 8 weeks
  Mean of Plaque Ratio (plaque area to total inner wall area of aorta): 9.02%
[8]; 10 mpk PO QD 8 weeks
  Mean of Plaque Ratio (plaque area to total inner wall area of aorta): 6.93%
[8]
  symptoms of atherosclerosis under therapeutic intervention (mainly plaque area ratio): significantly alleviate the symptoms of atherosclerosis
[4]
  effect on high-density lipoprotein (HDL-c) level compared with the vehicle group: no obvious effect
  effect on low-density lipoprotein (LDL-c) level compared with the vehicle group: significantly reduce
  effect on total cholesterol (TCHO) level compared with the vehicle group: significantly reduce
  effect on triglyceride (TG) level compared with the vehicle group: significantly reduce
